Measurements reported in patent US20240318141A1, “MATURATION AGENT” (Orizuru Therapeutics, Inc., priority 2021, published 2024).

Legend:
[1] = tested on: non-endocrine cells in graft (Outgrowth, Cyst); assay: Evaluation of non-endocrine cells in graft and protein expression by HE and immunohistological staining (Example 5); type: in vivo, mouse; conditions: graft 6 months after transplantation
Experimental: The excised graft was fixed and dehydrated, and a paraffin section was then prepared and subjected to HE staining and immunohistological staining for the expression of the proteins of interest (insulin, glucagon, Ki67, human nucleus, PDX1, and CK19). The presence or absence of non-endocrine cells was confirmed on the basis of the morphology and staining image thereof. The number and frequency of non-endocrine cells appearing in the graft were counted as total numbers from four tests conducted with cells derived from a plurality of batches treated in the same manner.
Outgrowth shown in Table 9 refers to a population of human nucleus-positive, PDX1-negative, and Ki67-positive non-endocrine cells, and its presence was determined from morphology by HE staining as well as by immunohistological staining. Cyst shown in Table 9 refers to human nucleus-positive, PDX1-positive, and CK19-positive non-endocrine duct cells, and its presence was determined from a duct form by HE staining as well as by immunohistological staining.

[2] = tested on: immunodeficient NOD/SCID mouse with streptozotocin-induced insulin-deficient diabetes mellitus; assay: In vivo transplantation of insulin-producing cell population prepared by addition of docetaxel: plasma human C-peptide and graft weight (Example 5)
Experimental: An immunodeficient NOD/SCID mouse was prepared by inducing insulin-deficient diabetes mellitus with streptozotocin. […] After transplantation, a human C-peptide concentration in plasma was measured over time. The graft was excised 6 months after transplantation, and its weight was measured.

## CC(=O)O[C@@]12CO[C@@H]1C[C@H](O)[C@@]1(C)C(=O)[C@H](O)C3=C(C)[C@@H](OC(=O)[C@H](O)[C@@H](NC(=O)OC(C)(C)C)c4ccccc4)C[C@@](O)([C@@H](OC(=O)c4ccccc4)[C@H]21)C3(C)C [Docetaxel, (−)-(1S,2S,3R,4S,5R,7S,8S,10R,13S)-4-Acetoxy-2-benzoyloxy-5,20-epoxy-1,7,10-trihydroxy-9-oxotax-11-en-13-yl (2R,3S)-3-tert-butoxycarbonylamido-2-hydroxy-3-phenylpropionate]
[1]
  Ki67-positive cells in graft (immunohistological staining): slightly scattered
  insulin-positive and glucagon-positive cells in graft (immunohistological staining): many insulin-positive and glucagon-positive cells were confirmed throughout the whole graft
[1]; total of 4 tests, 21 animals
  Frequency of appearance (%), Cyst: 10%
  Frequency of appearance (%), Outgrowth: 0%
  The number of appearance, Cyst: 2
  The number of appearance, Outgrowth: 0
[2]; graft excised at 6 months after transplantation
  graft weight: low tendency
[2]; subcutaneous transplantation, follow-up
  persistence of human C-peptide secretion after transplantation: continuously confirmed up to 6 months after transplantation
[2]; subcutaneously transplanted cell population prepared by addition of docetaxel vs prepared without docetaxel
  human C-peptide secretion in plasma: at the same level
